Consider nine compounds from ChEMBL document CHEMBL5131490, “5-Substituted 3, 3', 4', 7-tetramethoxyflavonoids - A novel class of potent DNA triplex specific binding ligands” (Bioorg Med Chem Lett, 2022).

Activity calls are given as the source filed them. The rule behind the calls is not given here.

What is called ΔTm is the shift of the melting midpoint relative to a reference.

The nature of experiment [1]: Binding affinity to triplex DNA1 containing 15 nucleotide-long triplex-forming region (unknown origin) assessed as change in melting temperature at 10 uM by UV based assay.
Experiment [2] in a line: Stabilization of [poly(dA).poly(dT)] triplex DNA (unknown origin) assessed as change in melting temperature at 10 uM by UV based assay.
A short description of experiment [3]: Binding affinity to triplex DNA1 containing 15 nucleotide-long triplex-forming region (unknown origin) at 100 uM by ITC. Background: Isothermal titration calorimetry measures the heat released or taken up as one component is titrated into another.
Experiment [4] is described as follows: Stabilization of [poly(dA).2poly(dT) triplex DNA (unknown origin) assessed as melting temperature at 10 uM by DSC assay (reference value: 36.8 degC).
A short description of experiment [5]: Stabilization of [poly(dA).2poly(dT) triplex DNA (unknown origin) assessed as deltaS level temperature at 10 uM by DSC assay (reference value: 0.0167 mol.K).
A short description of experiment [6]: Stabilization of [poly(dA).2poly(dT) triplex DNA (unknown origin) assessed as effect on CD spectrum up to 25 uM by CD spectroscopy.
A short description of experiment [7]: Stabilization of [poly(dA).2poly(dT) triplex DNA (unknown origin) assessed as deltaH level temperature at 10 uM by DSC assay (reference value: 5.19 KJ/mol). On the technique in general: Differential scanning calorimetry records heat flow against a reference as temperature is scanned.
Experiment [8] in a line: Stabilization of [poly(dA).2poly(dT) triplex DNA (unknown origin) assessed as melting temperature at 20 uM by Thermal denaturation assay.
The nature of experiment [9]: Stabilization of [poly(dA).2poly(dT) triplex DNA (unknown origin) assessed as increase in melting temperature at 1 uM by Thermal denaturation assay.

Consider `CCN(CC)CCCCOc1cc(OC)cc2oc(-c3ccc(OC)c(OC)c3)c(OC)c(=O)c12`, for which the ΔTm came out at 11.2 °C in experiment [1] and 14.5 °C in experiment [2].
Take `COc1cc(OCCCCN2CCCC2)c2c(=O)c(OC)c(-c3ccc(OC)c(OC)c3)oc2c1`: the values for the ΔTm in experiment [1] and in experiment [2] were 12.6 °C and 17.4 °C, respectively. In addition, the Ka in [3] was 310000 M⁻¹. Moreover, the Tm in [4] is 48.9 °C. For the same compound, in [5], the deltaS was 0.0271 KJ/(mol.K). For the same compound, the outcome in experiment [6] was Active. Further, the deltaH in experiment [7] is 2.08 kcal/mol.
Regarding `COc1cc(OCCCCN2CCN(C)CC2)c2c(=O)c(OC)c(-c3ccc(OC)c(OC)c3)oc2c1`, the ΔTm in experiment [1] stood at 5.6 °C; in [2], 12.3 °C.
In the same order, the values of `CCCCN(CCCC)CCCCOc1cc(OC)cc2oc(-c3ccc(OC)c(OC)c3)c(OC)c(=O)c12` are 5.6 °C and 3.3 °C.
With `COc1cc(OCCCCN2CCCCC2)c2c(=O)c(OC)c(-c3ccc(OC)c(OC)c3)oc2c1`, the Tm in experiment [8] amounted to 24 °C. Besides, the ΔTm came out at 6 °C in experiment [9], 13.6 °C in experiment [1] and 16.4 °C in experiment [2].
For the compound `NC[C@@H]1O[C@H](O[C@H]2[C@@H](O)[C@H](O[C@@H]3[C@@H](O)[C@H](N)C[C@H](N)[C@H]3O[C@H]3O[C@H](CN)[C@@H](O)[C@H](O)[C@H]3N)O[C@@H]2CO)[C@H](N)[C@@H](O)[C@@H]1O`, the Tm in [8] worked out at 24 °C. Further, the Ka in experiment [3] worked out at 160000 M⁻¹.
For the compound `CCCCCN(CCCCC)CCCCOc1cc(OC)cc2oc(-c3ccc(OC)c(OC)c3)c(OC)c(=O)c12`, the ΔTm worked out at 5.6 °C in experiment [1] and 2.4 °C in experiment [2].
In the case of `COc1cc(O)c2c(=O)c(OC)c(-c3ccc(OC)c(OC)c3)oc2c1`, the ΔTm in experiment [1] came out at 3.2 °C; in experiment [2], 2.5 °C. Further, in experiment [4], the Tm is 38.5 °C. Further, in experiment [5], the deltaS was 0.0167 KJ/(mol.K). Further, in [6], the outcome was Active. For the same compound, the deltaH in experiment [7] turned out to be 1.24 kcal/mol.
For `CCCN(CCC)CCCCOc1cc(OC)cc2oc(-c3ccc(OC)c(OC)c3)c(OC)c(=O)c12`, the values for the ΔTm in experiment [1] and in experiment [2] were 11.2 °C and 10.3 °C, respectively.
